Columns and labels:
[1] = biological target: T1, recombinant alpha-synuclein fibrils seeding HEK293T cells expressing YFP-fused A53T alpha-synuclein (Homo sapiens, UniProt P37840); test: Alpha-synuclein biosensor cell seeding assay, recombinant fibrils; format: cell-based; design: number of fluorescent puncta (seeded aggregates): dose or concentration left out as unconfirmed; conditions: for number of fluorescent puncta (seeded aggregates): 48 hours pre-incubation
T1 construct: made in house; host or cells: seed: E. coli BL21(DE3) Gold; reporter: stably transfected HEK293T cells from the Marc Diamond lab
Description: It is thought that alpha-synuclein pathology propagates throughout the brain via a prion-like seeding mechanism^20. Alpha-synuclein aggregates in one cell can fragment and spread to neighboring cells, where they seed the aggregation of soluble protein. Molecules able to disaggregate pre-formed fibrils may be able to interrupt this process. To that end, we assessed if both compounds could mitigate intracellular seeding of αSyn fibrils using alpha-synuclein biosensor cells-HEK293T cells expressing A53T mutant alpha-synuclein fused with yellow fluorescent protein (YFP). At baseline, the fluorescently labeled alpha-synuclein remains soluble within the cell, visible as diffuse fluorescence. However, the liposome-mediated transduction of exogenous αSyn fibrils into the cells induces aggregation of the endogenous protein, and the aggregates can be visualized and quantified as fluorescent puncta within the cell.
HEK293T biosensor cells stably expressing YFP-fused A53T mutant alpha-synuclein, developed and provided by the lab of Marc Diamond at UTSW were used. […] Prior to adding to cells, the coincubated compound/fibril solution was sonicated for 5 minutes in a cuphorn water bath, then mixed for 20 minutes with Lipofectamine 2000 in OptiMEM (1:20 dilution) for 20 minutes. 10 uL of the inhibitor/fibril+Lipofectamine mixture was added to 90 uL of cells plated in black 96-well tissue culture plates in triplicate for each concentration of compound tested. The number of seeded aggregates was quantified using a Celigo Image Cytometer (Nexcelom) in the YFP channel. Images were processed in ImageJ, background fluorescence from unseeded cells was subtracted, and the number of particles per image were counted using the Particle Analyzer function. The quantity of aggregates in each well was normalized to cell confluence. Standard deviation between triplicates and a nonlinear regression curve was used to calculate IC50 values for dose response curves. High quality fluorescent images were obtained using a ZEISS Axio Observer D1 fluorescence microscope in the YFP channel.

[2] = biological target: T2, MSA brain fibrils seeding HEK293T alpha-synuclein biosensor cells (Homo sapiens, UniProt P37840); test: Alpha-synuclein biosensor cell seeding assay, MSA brain fibrils; format: cell-based; conditions: sub micromolar concentrations, 48 hours pre-incubation
T2 construct: Extraction of sarkosyl-insoluble alpha-synuclein fibrils from neuropathologically confirmed brain samples of patients diagnosed with MSA; from tissue; host or cells: seed: MSA patient brain; reporter: stably transfected HEK293T cells from the Marc Diamond lab
Procedure: Next, we tested the efficacy of the compounds to mitigate the intracellular seeding of MSA fibrils in biosensor cells. Brain-derived MSA fibrils robustly seed intracellular alpha-synuclein in HEK293T biosensor cells^21. […] Cells were imaged 48 hours and the number of fluorescent puncta per sample well was quantified.
HEK293T biosensor cells stably expressing YFP-fused A53T mutant alpha-synuclein, developed and provided by the lab of Marc Diamond at UTSW were used. Cells were grown in DMEM (Life Technologies, cat. 11965092) with FBS (10% vol/vol; Life Technologies, cat. A3160401), penicillin/streptomycin (1%; Life Technologies, cat. 15140122), and Glutamax (1%; Life Technologies, cat. 35050061), at 37° C. and 5% CO2 in a humidified incubator. Compounds were incubated with recombinant or patient-derived alpha-synuclein fibrils for 48 hours in OptiMEM media then applied to ˜70% confluent biosensor cells. Prior to adding to cells, the coincubated compound/fibril solution was sonicated for 5 minutes in a cuphorn water bath, then mixed for 20 minutes with Lipofectamine 2000 in OptiMEM (1:20 dilution) for 20 minutes. 10 uL of the inhibitor/fibril+Lipofectamine mixture was added to 90 uL of cells plated in black 96-well tissue culture plates in triplicate for each concentration of compound tested. The number of seeded aggregates was quantified using a Celigo Image Cytometer (Nexcelom) in the YFP channel. Images were processed in ImageJ, background fluorescence from unseeded cells was subtracted, and the number of particles per image were counted using the Particle Analyzer function. The quantity of aggregates in each well was normalized to cell confluence. Standard deviation between triplicates and a nonlinear regression curve was used to calculate IC50 values for dose response curves. High quality fluorescent images were obtained using a ZEISS Axio Observer D1 fluorescence microscope in the YFP channel. […]

[3] = biological target: T3, recombinant alpha-synuclein fibrils (Homo sapiens, UniProt P37840); test: Thioflavin T fluorescence of alpha-synuclein fibrils; format: biochemical; conditions: equimolar 100 μM:100 μM, 48 hours at 37° C. in 1×PBS
T3 construct: made in house; host or cells: E. coli BL21(DE3) Gold
Procedure: Both compounds were incubated with equimolar ratios of recombinant alpha-synuclein fibrils (100 μM:100 μM) for 48 hours at 37° C. in 1×PBS. After incubation, Thioflavin T (ThT), a fluorescent marker of amyloid fibrils, was added to the samples and ThT fluorescence was measured. EGCG was used as a positive control for comparison. […] Next, transmission electron microscopy (EM) was performed for each sample. […] To obtain a quantitative evaluation of fibril reduction, fibrils were first incubated for 72 hours with compound, then 10 micrographs from random grid points were taken for each sample, and the numbers of fibrils per image were counted (FIG. 5c). […] Western blot analysis, staining for alpha-synuclein, was performed for fibril samples incubated with compounds for 48 hours (FIG. 5d). For untreated alpha-synuclein fibrils, we see a prominent band at 14 kDa corresponding with protein monomer. We also observe a large smear of higher molecular weight alpha-synuclein species, likely corresponding to oligomers or small fibrils, and a dark band at the top of the gel likely from larger fibrils. […] These physical and chemical properties are more predictive of oral bioavailability and central nervous system penetration compared to EGCG, making them more viable candidates for further drug development.
Compounds were incubated quiescently with fibril samples (both recombinant and brain-derived) for 72 hours at 37° C.

Row | SMILES | number of fluorescent puncta (seeded aggregates) [1] | seeding at low compound concentrations [1] | intracellular seeding by MSA brain fibrils [2] | ThT signal [3]
1 | Cc1cc(C)c(NC(=O)Cn2nc3c4c(cccc4c2=O)-c2ccccc2-3)c(C)c1 [CNS-11, N-mesityl-2-(3-oxoindeno[1,2,3-de]phthalazin-2(3H)-yl)acetamide] | dose-dependent reduction in aggregates | initial increase of seeding | very significant reduction in intracellular seeding | reduction in ThT signal
2 | Cc1cccc(C)c1NC(=O)Cn1nc(Cc2ccccc2)c2ccccc2c1=O [CNS-11g, 2-(4-benzyl-1-oxophthalazin-2-yl)-N-(2,6-dimethylphenyl)acetamide] | dose-dependent reduction in aggregates | not seen | very significant reduction in intracellular seeding | reduction in ThT signal
3 | O=C(O[C@@H]1Cc2c(O)cc(O)cc2O[C@@H]1c1cc(O)c(O)c(O)c1)c1cc(O)c(O)c(O)c1 [EGCG, epigallocatechin gallate] | dose-dependent reduction |  | very significant reduction in intracellular seeding | reduction in ThT signal

Reference: patent US20260021092A1, “STRUCTURE-BASED DESIGN OF A NOVEL CLASS OF DRUGS FOR NEURODEGENERATIVE DISEASE” (The Regents of the University of California, priority 2022, published 2026)
